Reference: ChEMBL document CHEMBL3392970, “Novel inhibitors of platelet aggregation” (ACS Med Chem Lett, 2015)

Key:
Plasma [1] = experiment: Antiplatelet activity in rat platelet-rich plasma assessed as inhibition of platelet aggregation; assay type: functional, cell-free
Plasma [2] = experiment: Antiplatelet activity in human platelet-rich plasma assessed as inhibition of platelet aggregation; assay type: functional, cell-free

Row | SMILES | IC50 (Plasma [1]) | IC50 (Plasma [2])
1 | CCCC(=O)c1cnn([C@H]2CC[C@H](NC(=O)c3cn(CC(=O)N4CCN(C)CC4)c4ccc(Cl)cc34)CC2)c1C | 91 nM | 270 nM
2 | CCCC(=O)c1cnn(C2CCN(NC(=O)c3cn(CC(=O)N4CCN(C)CC4)c4ccc(Cl)cc34)CC2)c1C | 43 nM | 25 nM
